Tests used:
[1] = test system: PI3Kδ signaling in basophils; experiment: Inhibition of PI3Kδ signaling in basophils from human whole blood; type: cell-based; details: human whole blood, anti-human IgE stimulation, CD63; read-out: IC50, inhibition of PI3Kδ signaling in basophils
Experimental: Methods • 1) Heparinized human whole blood was mixed and pipetted into the 96 well v-bottom plate, 100 μL per well. • 2) 10 μL of stimulation buffer (1 mg/mL stock, final concentration of Recombinant human IL-3: 20 ng/mL) was added to the whole blood samples of each well and vortex gently. […] Vortex all the wells once more and incubate for 20 min at 37° C. • 5) Labeling with staining antibody: Degranulation was stopped by incubating the samples on ice for 5 min. 6 μL of staining antibody mixture (anti-CD63-FITC and anti-IgE-PE) was added into each well. Vortex and incubate the wells for 20 min in an ice bath, covered to prevent exposure to light. • 6) The whole blood samples were lysed with 300 uL RBC lysis (pre-warmed to room temperature, 20 to 25° C.). Vortex and incubate the samples for 15 min at room temperature. Spin down cells (5 min, 250×g, 4° C.). The supernatant was aspirated leaving approximately 100 μL in each well. • 7) The blood samples were lysed once more as step 6). • 8) Washing: The samples are washed once with 0.5 mL of washing solution. The plate was centrifuged (5 min, 250×g, 4° C.). The supernatant was aspirated leaving approximately 100 μL in each well. The sample in each well was washed and centrifuged once more as above. • 9) 200 μL of fixing solution (1% papraledehyde in 1% BSA/PBS) was added into each well.
(§2) Data was analyzed and IC50 values were generated using the add-in software for Microsoft Excel, Xlfit™ (version 5.3).

PI3K-γ (p110γ) = PI3K-γ (p110γ) (Homo sapiens (Human), UniProt P48736); experiment: Transcreener KINASE Assay, fluorescent determination of PI3K enzyme activity; type: biochemical; details: for inhibition at 1 µM: read-out: PI3K-γ IH % (inhibition rate);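 as to all read-outs here: ADP produced by p110γ kinase reaction, 80 min at room temperature, detected by far-red fluorescence polarization immunoassay, inhibition relative to 2% DMSO control wells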
Experimental: (§3) It is a universal, homogenous, high throughput screening (HTS) technology using a far-red, competitive fluorescence polarization immunoassay based on the detection of ADP to monitor the activity of enzymes that catalyze group transfer reactions. […] The reaction mixture was added into desired wells of a 96-well plate. The plate was sealed and incubated for 80 min at room temperature. • 2) Next, 25 uL ADP detection mix was added into each well. The plate was sealed again and incubated for 60 min at room temperature. Then fluorescence polarization was measured by Tecan Infinite F500 Reader.
as §2

PI3K-δ (p110δ/p85α) = PI3K-δ (p110δ/p85α) (Homo sapiens (Human), UniProt O00329); experiment: as above; type: biochemical;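 also: ADP formed by the kinase detected via far-red competitive fluorescence polarization immunoassay after 80 min room-temperature reaction, inhibition relative to 2% DMSO wells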
Experimental: as §3, §2

SU-DHL-6 cells = experiment: In vitro cell proliferation assay in SU-DHL-6 cell line (CCK-8); type: cell-based; details: Homo sapiens, SU-DHL-6, 72 h
Experimental: Growth inhibition assays were carried out using 10% FBS supplemented media. Cells were seeded at a concentration of 15000 cells/well in a 96 well plate. Test compound dilution at different concentrations (final concentrations of the test compound: 1 uM, 0.3 uM, 0.1 uM, 0.037 uM, 0.012 uM, 0.0041 uM, 0.0014 uM and 0.0005 uM) were added after 24 hours. Growth was assessed using Cell Counting Kit-8 (CCK-8) (Dojindo, Cat#CK04) after the test compound were incubated for 72 h. Absorbance was read at the wave length 450 nm on Multiskan MK3 machine (Thermo).
as §2

PI3K-α (p110α/p85α) = PI3K-α (p110α/p85α) (Homo sapiens (Human), UniProt P42336); experiment: Transcreener KINASE Assay, fluorescent determination of PI3K enzyme activity; type: biochemical; details: for inhibition at 1 µM: read-out: PI3K-α IH % (inhibition rate)
Experimental: Inhibition rates were calculated as follow: IH %=(ADP amount under 2% DMSO well−ADP amount under test compound well)/ADP amount under 2% DMSO well×100%.

PI3K-β = PI3K-β (Homo sapiens, UniProt P42338); experiment: as above; type: biochemical; details: for inhibition at 1 µM: read-out: PI3K-β IH % (inhibition rate);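 as to all read-outs here: recombinant PI3K enzyme reaction, 80 min at room temperature, ADP formed detected by far-red competitive fluorescence polarization immunoassay, inhibition relative to ADP in 2% DMSO control wells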
Experimental: as §3, §2

[2] = test system: AKT phosphorylation (p-AKT Ser473) in Ramos cells; experiment: Inhibition of AKT phosphorylation in Ramos cell line (anti-IgM stimulated); type: cell-based; details: Homo sapiens; Ramos cells, anti-IgM stimulation; read-out: IC50, inhibition of AKT phosphorylation
Experimental: 6×10^4/mL Ramos cells (ATCC, CRL-1596; cells were cultured in RPMI1640 media with 10% FBS) were seeded into a 96-well plate (Beckman Dickinson, No. 356692) at 80 uL/well, 4,800 cells/well. After incubation for 3 hr at 37° C. under 5% CO2, Ramos cells were treated with 10 uL/well various concentrations of test compound (final concentrations of the test compound: 1 uM, 0.3 uM, 0.1 uM, 0.037 uM, 0.012 uM, 0.0041 uM, 0.0014 uM and 0.0005 uM) or 0.3% DMSO for 30 min, and then were stimulated with 10 uL/well 1 ug/ml Anti-IgM (Jackson Immunoresearch, 709-006-073) for 15-20 min. • 1) Cells were fixed with 100 μL of 4% pre-warmed Paraformaldehyde (2% final concentration), and incubated for 45 min at room temperature. • 2) The paraformaldehyde solution was removed. 100 μL of ice-cold methanol was added into each well and the plate was left at 4° C. for 30 min. • 3) The cells were washed for three times with 160 μL PBS. • 4) 40 μL 1:350 dilution of Rabbit anti-p-AKT(Ser^473) antibody (Cell Signaling Technology, 4060L) in antibody dilution buffer (1% BSA, in PBS) were added into each well. The plate was inculpated overnight at 4° C. • 5) The cells were washed for 3 times with 160 uL PBS. • 6) 45 μL of Goat anti-rabbit IgG Alexa488 antibody (Invitrogen, A11034) at a 1:1,000 dilution in antibody dilution buffer (1% BSA, in PBS) were added into each well. The plate was covered with foil to keep out of light and was incubated for 90 min at room temperature. • 7) The cells were washed for 3 times with 160 uL PBS. • 8) 50 μL of 1.5 μM Propidium Iodide (Sigma: P4170) solution was added into each well to determine cell number (1.5 mM Propidium iodide stock was diluted with 1:1,000 in PBS, and the final concentration was 1.5 μM). • 9) The plate was incubated at room temperature for 30 min and then was sealed with a cover-seal. • 10) The plate was loaded into the Acumen Explorer and scan with the appropriate instrument settings.
as §2

[3] = test system: collagen-induced arthritis, paw volume; experiment: Rat collagen II induced arthritis (CIA) model; type: in vivo, Wistar rats
Experimental: Rat collagen induced arthritis is an experimental model of polyarthritis that has been widely used for nonclinical testing of numerous anti-arthritic agents that are either under nonclinical or clinical investigation or are currently used as therapeutics in this disease. […] Wistar rats were immunized intradermally with 200 μg bovine collagen H emulsified in Freund's incomplete adjuvant (IFA, Sigma. US) on day 0 and day 7. The hind paw volumes were measured before and after the immunization. […] The naive group was not administered. YiSaiPu (10 mg/kg), a human tumor necrosis factor receptor p75 Fc fusion protein, was administered with intraperitoneal injection on days 10, 12 and 14 as a positive control. The study was terminated on day 18.

[4] = test system: B cells (B220+) activation (CD86); experiment: Anti-IgD antibody induced B cells activation in rat whole blood, ex vivo after oral administration; set-up: species or system Wistar rats
Experimental: Activation of B cells (B220+) in rat whole, blood with anti-IgD antibody leading to activation via Ig receptors is known to involve PI3K pathways and sensitive to modulation by PI3Kδ inhibitors, A pharmacodynamics assay was developed to assess activity of PI3Kδ inhibitors ex vivo following oral administration of inhibitors to rats.
(§1) Wistar rats (female, 6-8 weeks old) were used in the experiments. The dose dependency, time course study and PKPD relationship of compound 4 were conducted in normal Wistar rats. […] The control group (6 rats) was treated with the vehicle alone. At designated time points (1 hour, 8 hours, 16 hours and 24 hours after administration), blood samples were collected from rats via retro-orbital bleeding under isofluorane anesthesia into heparinized tubes. The heparin anti-coagulated blood was mixed with anti-rat-IgD, then was incubated at 37° C. under 5% CO2 overnight. Fluorescence signal for CD86 on B220 (B cells) positive cells was detected using a flow cytometer (BD FACSCalibur, BD Biosciences) and data were analyzed by CellQuest software. Plasma was collected to measure compound 4 levels.

[5] = Plasma levels of compound 4 after oral administration; type: in vivo, Wistar rats; details: dose range 0.01 mg/kg to 3 mg/kg
Experimental: as §1

Sequence of PI3K-γ (p110γ) (P48736 whole entry, species assumed): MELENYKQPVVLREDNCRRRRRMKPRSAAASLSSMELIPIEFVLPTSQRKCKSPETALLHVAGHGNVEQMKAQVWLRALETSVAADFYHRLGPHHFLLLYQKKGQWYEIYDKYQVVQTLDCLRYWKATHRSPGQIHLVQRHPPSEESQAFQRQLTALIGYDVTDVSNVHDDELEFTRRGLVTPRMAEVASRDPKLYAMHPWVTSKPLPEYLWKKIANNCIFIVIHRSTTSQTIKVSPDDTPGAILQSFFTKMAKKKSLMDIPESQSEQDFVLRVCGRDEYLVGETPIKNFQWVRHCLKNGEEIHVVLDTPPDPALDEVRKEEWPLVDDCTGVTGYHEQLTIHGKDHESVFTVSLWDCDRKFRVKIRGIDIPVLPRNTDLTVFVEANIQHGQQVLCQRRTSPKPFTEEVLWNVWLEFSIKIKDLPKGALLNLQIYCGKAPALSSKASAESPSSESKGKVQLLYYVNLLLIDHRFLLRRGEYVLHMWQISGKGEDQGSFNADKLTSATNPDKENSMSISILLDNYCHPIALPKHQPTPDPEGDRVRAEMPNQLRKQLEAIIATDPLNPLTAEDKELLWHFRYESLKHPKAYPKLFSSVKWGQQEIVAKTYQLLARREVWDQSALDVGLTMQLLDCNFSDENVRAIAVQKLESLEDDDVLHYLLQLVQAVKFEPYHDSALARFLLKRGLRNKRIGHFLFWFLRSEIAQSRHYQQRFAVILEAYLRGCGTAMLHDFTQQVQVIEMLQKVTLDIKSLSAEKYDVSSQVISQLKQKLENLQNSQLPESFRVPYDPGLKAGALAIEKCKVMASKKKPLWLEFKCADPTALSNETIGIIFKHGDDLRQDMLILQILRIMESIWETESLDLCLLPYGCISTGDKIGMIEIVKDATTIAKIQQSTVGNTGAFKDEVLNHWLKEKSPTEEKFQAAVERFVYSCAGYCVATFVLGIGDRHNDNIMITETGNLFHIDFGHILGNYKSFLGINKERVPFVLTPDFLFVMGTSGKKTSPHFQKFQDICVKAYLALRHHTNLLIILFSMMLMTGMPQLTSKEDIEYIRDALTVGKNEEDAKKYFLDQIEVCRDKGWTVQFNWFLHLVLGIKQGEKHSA
Sequence of PI3K-α (p110α/p85α) (P42336 whole entry, species assumed): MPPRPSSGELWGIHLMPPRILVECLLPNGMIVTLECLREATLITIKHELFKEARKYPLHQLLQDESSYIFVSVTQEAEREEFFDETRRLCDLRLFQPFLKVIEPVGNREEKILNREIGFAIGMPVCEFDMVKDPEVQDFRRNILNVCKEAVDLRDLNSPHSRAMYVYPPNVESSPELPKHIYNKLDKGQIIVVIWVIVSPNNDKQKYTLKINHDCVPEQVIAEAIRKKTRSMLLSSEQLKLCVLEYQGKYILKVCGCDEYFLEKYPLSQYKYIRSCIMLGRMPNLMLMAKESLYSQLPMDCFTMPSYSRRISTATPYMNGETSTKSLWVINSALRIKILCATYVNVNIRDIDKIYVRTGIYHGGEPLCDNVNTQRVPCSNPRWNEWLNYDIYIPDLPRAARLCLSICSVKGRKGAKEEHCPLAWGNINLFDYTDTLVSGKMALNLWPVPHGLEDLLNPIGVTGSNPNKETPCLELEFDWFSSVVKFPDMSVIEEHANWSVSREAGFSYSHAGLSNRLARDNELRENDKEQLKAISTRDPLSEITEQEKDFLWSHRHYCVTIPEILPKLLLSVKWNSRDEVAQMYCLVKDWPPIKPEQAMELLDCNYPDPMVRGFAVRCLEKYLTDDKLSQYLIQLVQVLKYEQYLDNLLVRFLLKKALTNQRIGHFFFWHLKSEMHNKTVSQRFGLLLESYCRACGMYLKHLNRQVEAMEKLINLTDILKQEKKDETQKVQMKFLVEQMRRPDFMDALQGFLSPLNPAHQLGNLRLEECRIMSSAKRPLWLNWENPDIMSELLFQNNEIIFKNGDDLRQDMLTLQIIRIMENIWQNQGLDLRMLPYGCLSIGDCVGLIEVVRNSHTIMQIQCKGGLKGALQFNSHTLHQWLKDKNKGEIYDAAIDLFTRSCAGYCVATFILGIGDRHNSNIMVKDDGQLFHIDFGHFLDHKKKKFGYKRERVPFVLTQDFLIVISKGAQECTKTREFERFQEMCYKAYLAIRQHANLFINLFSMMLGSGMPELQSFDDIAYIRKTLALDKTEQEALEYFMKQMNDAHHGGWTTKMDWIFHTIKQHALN
Sequence of PI3K-α (p110α/p85α) (P27986 whole entry partner, species assumed): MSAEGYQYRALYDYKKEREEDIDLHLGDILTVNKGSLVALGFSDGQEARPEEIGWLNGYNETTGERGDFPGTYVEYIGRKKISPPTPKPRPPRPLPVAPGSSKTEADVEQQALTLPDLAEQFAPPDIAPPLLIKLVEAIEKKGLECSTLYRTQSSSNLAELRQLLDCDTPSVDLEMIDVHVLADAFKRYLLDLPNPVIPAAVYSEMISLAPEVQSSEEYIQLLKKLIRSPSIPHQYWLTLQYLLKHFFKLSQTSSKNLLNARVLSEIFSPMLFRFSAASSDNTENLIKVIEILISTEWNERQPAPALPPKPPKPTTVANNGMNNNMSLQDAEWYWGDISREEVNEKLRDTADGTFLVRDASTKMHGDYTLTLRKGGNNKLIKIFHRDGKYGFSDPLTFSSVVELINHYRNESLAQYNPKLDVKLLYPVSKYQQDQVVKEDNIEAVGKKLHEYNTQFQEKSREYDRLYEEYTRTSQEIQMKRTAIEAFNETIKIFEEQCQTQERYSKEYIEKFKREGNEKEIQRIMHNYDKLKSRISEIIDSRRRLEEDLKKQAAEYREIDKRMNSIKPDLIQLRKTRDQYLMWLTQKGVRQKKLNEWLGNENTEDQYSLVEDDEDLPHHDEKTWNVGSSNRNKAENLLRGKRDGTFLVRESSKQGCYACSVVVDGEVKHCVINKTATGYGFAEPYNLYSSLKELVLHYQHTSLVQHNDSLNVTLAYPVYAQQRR
Sequence of PI3K-δ (p110δ/p85α) (O00329 whole entry, species assumed): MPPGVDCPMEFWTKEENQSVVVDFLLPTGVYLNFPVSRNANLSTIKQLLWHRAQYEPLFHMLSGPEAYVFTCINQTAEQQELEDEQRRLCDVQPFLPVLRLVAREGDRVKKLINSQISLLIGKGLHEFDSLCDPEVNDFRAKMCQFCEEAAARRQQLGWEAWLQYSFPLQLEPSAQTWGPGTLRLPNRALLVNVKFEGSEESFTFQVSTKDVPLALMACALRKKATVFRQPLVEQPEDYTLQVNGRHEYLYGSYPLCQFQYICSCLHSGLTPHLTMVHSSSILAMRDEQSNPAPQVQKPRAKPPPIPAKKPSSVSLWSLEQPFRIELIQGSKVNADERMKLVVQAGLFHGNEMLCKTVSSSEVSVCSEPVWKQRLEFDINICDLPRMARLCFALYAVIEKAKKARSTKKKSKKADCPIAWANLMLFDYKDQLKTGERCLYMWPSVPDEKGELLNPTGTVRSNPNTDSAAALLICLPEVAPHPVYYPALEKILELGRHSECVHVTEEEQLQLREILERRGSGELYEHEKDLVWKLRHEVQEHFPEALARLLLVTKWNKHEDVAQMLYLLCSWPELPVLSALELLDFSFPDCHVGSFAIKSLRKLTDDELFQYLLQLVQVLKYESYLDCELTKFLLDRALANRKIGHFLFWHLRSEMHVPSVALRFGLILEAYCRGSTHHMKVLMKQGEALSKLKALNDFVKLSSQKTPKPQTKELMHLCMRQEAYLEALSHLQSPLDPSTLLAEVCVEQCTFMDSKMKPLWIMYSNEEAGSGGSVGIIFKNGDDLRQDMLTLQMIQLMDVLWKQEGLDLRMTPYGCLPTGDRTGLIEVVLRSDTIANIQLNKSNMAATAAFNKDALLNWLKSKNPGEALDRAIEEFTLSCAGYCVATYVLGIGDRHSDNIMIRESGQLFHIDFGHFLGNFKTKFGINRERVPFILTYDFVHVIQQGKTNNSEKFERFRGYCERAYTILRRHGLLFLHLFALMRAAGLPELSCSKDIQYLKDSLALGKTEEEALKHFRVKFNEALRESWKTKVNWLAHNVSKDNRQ
Sequence of PI3K-δ (p110δ/p85α) (P27986 whole entry partner, species assumed): as the sequence (P27986 whole entry partner, species assumed) above
Sequence of PI3K-β (P42338 whole entry, looked up): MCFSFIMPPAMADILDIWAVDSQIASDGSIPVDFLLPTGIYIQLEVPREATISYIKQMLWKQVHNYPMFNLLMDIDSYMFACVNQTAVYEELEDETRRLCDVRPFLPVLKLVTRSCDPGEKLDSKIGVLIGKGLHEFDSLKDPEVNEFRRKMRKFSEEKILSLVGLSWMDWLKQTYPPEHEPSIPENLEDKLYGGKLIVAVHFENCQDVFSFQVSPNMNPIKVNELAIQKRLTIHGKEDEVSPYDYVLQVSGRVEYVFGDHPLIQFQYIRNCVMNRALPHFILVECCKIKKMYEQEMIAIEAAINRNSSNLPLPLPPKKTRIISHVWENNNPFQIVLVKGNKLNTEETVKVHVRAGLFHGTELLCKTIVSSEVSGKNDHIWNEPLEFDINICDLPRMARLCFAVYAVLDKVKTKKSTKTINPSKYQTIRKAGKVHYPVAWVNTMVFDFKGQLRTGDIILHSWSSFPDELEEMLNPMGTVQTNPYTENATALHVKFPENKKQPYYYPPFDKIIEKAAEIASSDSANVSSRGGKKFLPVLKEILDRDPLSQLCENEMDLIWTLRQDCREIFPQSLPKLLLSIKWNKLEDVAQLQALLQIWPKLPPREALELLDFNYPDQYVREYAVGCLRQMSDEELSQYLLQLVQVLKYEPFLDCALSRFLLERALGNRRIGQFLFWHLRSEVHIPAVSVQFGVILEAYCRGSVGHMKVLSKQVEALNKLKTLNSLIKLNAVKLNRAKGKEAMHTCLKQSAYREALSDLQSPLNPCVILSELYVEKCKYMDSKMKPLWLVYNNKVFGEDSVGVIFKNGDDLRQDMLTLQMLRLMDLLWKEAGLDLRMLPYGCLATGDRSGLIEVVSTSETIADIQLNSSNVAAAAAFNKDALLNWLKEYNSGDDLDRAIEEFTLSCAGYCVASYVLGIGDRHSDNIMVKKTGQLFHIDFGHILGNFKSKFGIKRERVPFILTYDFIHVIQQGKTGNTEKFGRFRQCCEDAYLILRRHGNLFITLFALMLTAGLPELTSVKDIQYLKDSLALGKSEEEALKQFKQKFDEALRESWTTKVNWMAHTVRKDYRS

Compound	IC50 [1] [nM]	inhibition at 1 µM (PI3K-γ (p110γ)) [%]	IC50 (PI3K-δ (p110δ/p85α)) [nM]	IC50 (SU-DHL-6 cells) [nM]	IC50 (PI3K-α (p110α/p85α)) [nM]	inhibition at 1 µM (PI3K-β; at 1 μM) [%]	IC50 (PI3K-γ (p110γ)) [nM]	IC50 [2] [nM]	IC50 (PI3K-β) [nM]	mean paw volume at end of treatment vs vehicle-treated diseased animals ([3]; PO QD 7 days, p<0.01 except at lowest dose 0.03 mg/kg)	effects on parameters associated with established type II collagen-induced arthritis ([3]; daily oral treatment)	ED50 ([4]; Rattus norvegicus, B-cell, at 2 hr post-dose, oral) [mg/kg]	inhibition at 0.1 mg/kg ([4]; Rattus norvegicus, B-cell, single oral 0.1 mg/kg dose, up to 24 hr) [%]	anti-IgD induced B cell activation in rat whole blood, ex vivo ([4]; oral, dose range 0.01 to 3 mg/kg, p<0.01)	Plasma levels [5]	inhibition at 1 µM (PI3K-α (p110α/p85α)) [%]	PI3K-β IH % (inhibition rate) (PI3K-β; at 1 μM) [%]
C[C@@H](c1cc2ncc(Cl)n2nc1-c1ccccc1)n1cnc2c(N)ncnc21 [Compound 20, (S)-9-(1-(3-chloro-6-phenylimidazo[1,2-b]pyridazin-7-yl)ethyl)-9H-purin-6-amine]	397	43.1	73	262	> 1000	17.4	–	–	–	–	–	–	–	–	–	–	–
C[C@H](Nc1ncnc2[nH]cnc12)c1cc2ncc(Cl)n2nc1-c1ccccc1F [Compound 13]	10	–	3	11	> 1000	–	484	4	1920	–	–	–	–	–	–	–	–
CC[C@H](Nc1ncnc(N)c1C#N)c1cc2ncc(Cl)n2nc1-c1ccccc1 [Compound 6, (S)-4-amino-6-((1-(3-chloro-6-phenylimidazo[1,2-b]pyridazin-7-yl)propyl)amino)pyrimidine-5-carbonitrile]	6	61.1	1	3	> 1000	–	–	0.3	303	–	–	–	–	–	–	–	–
C[C@H](Nc1ncnc(N)c1C#N)c1cc2ncc(Cl)n2nc1-c1ccccc1 [Compound 4, (S)-4-amino-6-((1-(3-chloro-6-phenylimidazo[1,2-b]pyridazin-7-yl)ethyl)amino)pyrimidine-5-carbonitrile]	–	–	–	–	> 1000	–	–	2	–	significantly decreased	dose-dependent beneficial effects	< 0.01	> 90	inhibited anti-IgD induced B cell activation	dose-proportional	–	–
C[C@H](Nc1ncnc(N)c1C#N)c1cc2ncc(Cl)n2nc1-c1ccccn1 [Compound 8, (S)-4-amino-6-((1-(3-chloro-6-(pyridin-2-yl)imidazo[1,2-b]pyridazin-7-yl)ethyl)amino)pyrimidine-5-carbonitrile]	9	-1.4	10	31	> 1000	37.7	–	–	–	–	–	–	–	–	–	–	–
Cc1cnc2cc([C@H](C)Nc3ncnc(N)c3C#N)c(-c3ccccc3)nn12 [Compound 22]	2	–	2	19	–	76.7	322	4	–	–	–	–	–	–	–	13.6	–
C[C@H](Nc1ncnc2[nH]ccc12)c1cc2ncc(Cl)n2nc1-c1ccccc1 [Compound 17]	618	61.2	26	172	> 1000	15.8	–	–	–	–	–	–	–	–	–	–	–
CCC(Nc1ncnc2[nH]cnc12)c1cc2ncc(Cl)n2nc1-c1ccccc1 (stereo not shown) [Compound 18]	88	–	4	26	> 1000	–	617	–	–	–	–	–	–	–	–	–	42
CCC(Nc1ncnc(N)c1C#N)c1cc2ncc(Cl)n2nc1-c1ccccc1F (stereo not shown) [Compound 19]	16	–	2	23	> 1000	–	1960	–	1070	–	–	–	–	–	–	–	–
C[C@H](Nc1ncnc(N)c1C#N)c1cc2ncc(Cl)n2nc1-c1cccc(F)c1 [Compound 15]	2	–	1	2	> 1000	59	393	0.5	–	–	–	–	–	–	–	–	–
Cc1cnc2cc([C@H](C)Nc3ncnc4[nH]cnc34)c(-c3ccccc3)nn12 [Compound 23]	6	–	6	78	–	28.7	343	12	–	–	–	–	–	–	–	3.2	–

Reference: patent publication US10208066B2, “Imidazopyridazine compounds and their use” (HUTCHISON MEDIPHARMA LIMITED, priority 2014, dated 2019)
